Converted amounts (≈) assume the structure as drawn.
What was measured:
[1] = system: E. faecalis ATCC 29212; test: MIC by broth microdilution (CLSI); format: cell-based, Enterococcus faecalis; details: Gram-positive, 37 °C, 24 h, Mueller Hinton Broth; for MIC: Enterococcus faecalis, ATCC29212, read-out: MIC E.f. 29212
Procedure: (§1) The in vitro Minimum Inhibitory Concentrations (MICs, μg/mL) were determined by the broth microdilution method according to the Clinical Laboratory Standards Institute (CLSI) guidelines. MIC values were recorded as the lowest concentration of compounds at which there was no optically detectable microorganism growth and evaluated by comparing the growth in each well visually with that of the growth in the control well for bacteria. All compounds were dissolved in dimethyl sulfoxide (DMSO) and were tested in a final concentration range of from 512 to 2 µg/mL. MICs for the reference antibiotic norfloxacin against quality control strains were used to confirm the validity of the screen. According to the CLSI guidelines, diphenylureas were tested in vitro against a panel of Gram-positive and Gram-negative bacteria belonging to the ATCC collection using the standard microdilution test for the determination of MICs. MICs of the synthesised compounds along with the parent compound TCC and with the standard antibiotic norfloxacin are listed in Table 1. The compounds were also analyzed in terms of molecular mass, logP (Table 1), number of hydrogen-bond donors and number of hydrogen-bond acceptors, and most of them obeyed Lipinski’s rule. […] Based on our results, it seems that the 3,4-dichloro-disubstitution pattern, which is present in TCC, is not crucial for activity. […] Moreover, the activity against Enterococcus faecalis was interesting. E. faecalis is a ubiquitous member of the healthy human gut microbiota and also a common opportunistic pathogen and leading cause of nosocomial infections. It has a high incidence for most infections, and the case numbers have been increasing in recent decades, likely due to its greater ability to persist in healthcare facilities and its higher abundance in the human gut microbiome. Kim et al. (2016) compared the bactericidal effects of plain and antibacterial soap containing 0.3% TCC. The authors found no significative difference between the effects of plain and medicated soap at either temperature, with the only exception of E. faecalis ATCC 19433 at 40 °C.
(§2) MICs (μg/mL) were determined by the broth microdilution method, using 96-well plates, according to CLSI [26]. Stock solutions of the investigated compounds were obtained by setting the concentration at the maximum possible value. Then, the stock solutions were diluted 1:10 with Mueller Hinton Broth (Oxoid, Italy). Afterwards, twofold serial dilutions in the suitable test medium were carried out to obtain a set of concentrations from 512 to 2 µg/mL in the wells. To obtain the stock solution, DMSO (100%) was employed as diluent. The following bacteria strains, available as freeze-dried discs, belonging to the ATCC collection, were used: Gram-positive: S. aureus ATCC 29213, 6538, and 6538P, E. faecalis ATCC 29212; Gram-negative: K. pneuomoniae ATCC 13883, P. aeruginosa ATCC 27853. To conserve the purity of cultures and to enable their reproducibility, cryovials of all microbial strains in the medium were set up and stored at −80 °C. Pre-cultures of each bacterial strain were prepared in Mueller Hinton Broth (MHB) and incubated at 37 °C for 3–5 h. The turbidity of bacterial cell suspension was calibrated to 0.5 McFarland Standard by the spectrophotometric method (OD 625 nm 0.08–0.10), as indicated in the CLSI protocol M7-A9 and, further, the standardized suspension was diluted (1:100) with MHB to reach 1–2 × 10^6 CFU/mL. All wells were seeded with 100 µl of the mentioned final inoculum, and some wells contained only inoculated broth as control growth. […] The MICs were determined by using the assay repeated twice in triplicate. Throughout the study, norfloxacin was used as reference antibiotic. Appropriate controls involved norfloxacin for bacteria as international reference standard. […]

[2] = system: S. aureus ATCC 29213; test: MIC by broth microdilution (CLSI); format: cell-based, Staphylococcus aureus; details: Gram-positive, 37 °C, 24 h, Mueller Hinton Broth; for MIC: Staphylococcus aureus, ATCC29213
Procedure: as §1, §2

[3] = system: S. aureus ATCC 6538P; test: MIC by broth microdilution (CLSI); format: cell-based, Staphylococcus aureus; details: Gram-positive, 37 °C, 24 h, Mueller Hinton Broth; for MIC: Staphylococcus aureus, ATCC6538P
Procedure: as §1, §2

[4] = system: S. aureus ATCC 6538; test: MIC by broth microdilution (CLSI); format: cell-based, Staphylococcus aureus; details: Gram-positive, 37 °C, 24 h, Mueller Hinton Broth; for MIC: Staphylococcus aureus, ATCC6538
Procedure: as §1, §2

[5] = system: K. pneumoniae ATCC 13883; test: MIC by broth microdilution (CLSI); format: cell-based; details: Gram-negative, 37 °C, 24 h, Mueller Hinton Broth; for MIC: Klebsiella pneumoniae, ATCC13883, read-out: MIC K.p. 13883
Procedure: as §1, §2

[6] = system: P. aeruginosa ATCC 27853; test: MIC by broth microdilution (CLSI); format: cell-based; details: Gram-negative, 37 °C, 24 h, Mueller Hinton Broth; for MIC: Pseudomonas aeruginosa, ATCC27853
Procedure: as §1, §2

[7] = system: Staphylococcus aureus; test: MIC by broth microdilution, S. aureus (strain not given); format: cell-based; details: strain not specified (best value among the ATCC strains), read-out: MIC against S. aureus
Procedure: as §1, §2

[8] = system: E. coli 25922; test: MIC by broth microdilution (CLSI); format: cell-based; details: Escherichia coli, Gram-negative, 37 °C, 24 h, Mueller Hinton Broth

Compound | MIC E.f. 29212 [1] [µg/mL] | MIC S.a. 29213 [2] [µg/mL] | MIC S.a. 6538P [3] [µg/mL] | MIC S.a. 6538 [4] [µg/mL] | MIC K.p. 13883 [5] [µg/mL] | MIC P. a. 27853 [6] [µg/mL] | MIC [7] [µg/mL] | MIC [8] [µg/mL] | MIC [1] [µg/mL] | MIC [2] [µg/mL] | MIC [3] [µg/mL] | MIC [4] [µg/mL] | MIC [5] [µg/mL] | MIC [6] [µg/mL] | melting point [°C]
1-(3-Chloro-4-fluorophenyl)-3-(2-methylphenyl)urea [1gk] | 64 | 256 | 64 | 128 | 256 | 256 |  |  |  |  |  |  |  |  | 
COc1ccc(NC(=O)Nc2ccc(C)cc2)cc1 [1ad, 1-(4-Methoxyphenyl)-3-(p-tolyl)urea] |  |  |  |  |  |  | 32 (≈ 125 µM) | > 256 | 128 (≈ 499 µM) | 128 (≈ 499 µM) | 32 (≈ 125 µM) | 32 (≈ 125 µM) | > 256 | > 256 | 
Cc1ccc(NC(=O)Nc2ccc(Cl)c(Cl)c2)cc1 [1ae, 1-(3,4-Dichlorophenyl)-3-p-tolylurea] |  |  |  |  |  |  |  | > 256 | 128 (≈ 434 µM) | 128 (≈ 434 µM) | 64 (≈ 217 µM) | 64 (≈ 217 µM) | > 256 | > 256 | 225 to 226
Cc1ccc(NC(=O)Nc2ccccc2)cc1 [1af, 1-(4-Methylphenyl)-3-phenylurea] |  |  |  |  |  |  |  | > 256 | 64 (≈ 283 µM) | 128 (≈ 566 µM) | 128 (≈ 566 µM) | 64 (≈ 283 µM) | > 256 | > 256 | 
Cc1ccc(NC(=O)Nc2ccccc2C)cc1 [1ag, 1-(2-Methylphenyl)-3-(4-methylphenyl)urea] |  |  |  |  |  |  |  | > 256 | 128 (≈ 533 µM) | 256 (≈ 1070 µM) | 256 (≈ 1070 µM) | 128 (≈ 533 µM) | > 256 | > 256 | 
COc1ccc(NC(=O)Nc2c(C)cccc2C)cc1 [1bd, 1-(4-Methoxyphenyl)-3-(2,6-dimethylphenyl)urea] |  |  |  |  |  |  | 16 (≈ 59.2 µM) | > 256 | 128 (≈ 473 µM) | > 256 | 16 (≈ 59.2 µM) | 32 (≈ 118 µM) | > 256 | > 256 | 
Cc1cccc(C)c1NC(=O)Nc1ccc(Cl)c(Cl)c1 [1be, 1-(2,6-Dimethylphenyl)-3-(3,4-dichlorophenyl)urea] |  |  |  |  |  |  | 32 (≈ 103 µM) | > 256 | 64 (≈ 207 µM) | 128 (≈ 414 µM) | 128 (≈ 414 µM) | 32 (≈ 103 µM) | > 256 | > 256 | 249 to 250
Cc1cccc(C)c1NC(=O)Nc1ccccc1 [1bf, 1-(2,6-Dimethylphenyl)-3-phenylurea] |  |  |  |  |  |  | 16 (≈ 66.6 µM) | > 256 | 64 (≈ 266 µM) | > 256 | 16 (≈ 66.6 µM) | 16 (≈ 66.6 µM) | > 256 | > 256 | 240 to 241
O=C(Nc1ccc(Cl)cc1)Nc1ccc(Cl)cc1 [1cc (DCC), 1-(4-Chlorophenyl)-3-(4-chlorophenyl)urea] |  |  |  |  |  |  |  | > 256 | 128 (≈ 455 µM) | 256 (≈ 911 µM) | 256 (≈ 911 µM) | 128 (≈ 455 µM) | > 256 | > 256 | 
O=C(Nc1ccccc1)Nc1ccc(Cl)cc1 [1cf (MCC), 1-(4-Chlorophenyl)-3-phenylurea] |  |  |  |  |  |  |  | > 256 | 64 (≈ 259 µM) | 128 (≈ 519 µM) | 128 (≈ 519 µM) | 64 (≈ 259 µM) | > 256 | > 256 | 
COc1ccc(NC(=O)Nc2ccc(Cl)c(Cl)c2)cc1 [1de, 1-(3,4-Dichlorophenyl)-3-(4-methoxyl)phenylurea] |  |  |  |  |  |  |  | > 256 | 64 (≈ 206 µM) | 128 (≈ 411 µM) | 64 (≈ 206 µM) | 64 (≈ 206 µM) | > 256 | > 256 | 
COc1ccc(NC(=O)Nc2ccccc2)cc1 [1df, 1-(4-Methoxyphenyl)-3-phenylurea] |  |  |  |  |  |  |  | > 256 | 128 (≈ 528 µM) | 256 (≈ 1060 µM) | 128 (≈ 528 µM) | 64 (≈ 264 µM) | > 256 | 256 (≈ 1060 µM) | 
O=C(Nc1ccccc1)Nc1ccc(Cl)c(Cl)c1 [1ef, 1-(3,4-Dichlorophenyl)-3-phenylurea] |  |  |  |  |  |  | 16 (≈ 56.9 µM) | > 256 | 128 (≈ 455 µM) | 256 (≈ 911 µM) | 128 (≈ 455 µM) | 16 (≈ 56.9 µM) | > 256 | 256 (≈ 911 µM) | 
Cc1ccccc1NC(=O)Nc1ccc(Cl)c(Cl)c1 [1eg, 1-(3,4-Dichlorophenyl)-3-(2-methylphenyl)urea] |  |  |  |  |  |  |  | > 256 | 64 (≈ 217 µM) | 256 (≈ 867 µM) | 128 (≈ 434 µM) | 64 (≈ 217 µM) | > 256 | > 256 | 
O=C(Nc1ccccc1)Nc1ccccc1 [1ff (NCC), 1,3-Diphenylurea] |  |  |  |  |  |  |  | > 256 | > 256 | > 256 | 64 (≈ 302 µM) | 128 (≈ 603 µM) | > 256 | > 256 | 
O=C(Nc1ccccc1)Nc1ccc(F)c(F)c1 [1fj, 1-(3,4-Difluorophenyl)-3-phenylurea] |  |  |  |  |  |  |  |  | 128 (≈ 516 µM) | 256 (≈ 1030 µM) | 64 (≈ 258 µM) | 128 (≈ 516 µM) | 256 (≈ 1030 µM) | 256 (≈ 1030 µM) | 213 to 214
Cc1ccccc1NC(=O)Nc1ccc(F)c(F)c1 [1gj, 1-(3,4-Difluorophenyl)-3-(2-methylphenyl)urea] |  |  |  |  |  |  |  | > 256 | 64 (≈ 244 µM) | > 256 | 128 (≈ 488 µM) | 64 (≈ 244 µM) | > 256 | > 256 | 

Reference: publication PMC7922224, “Searching for Small Molecules as Antibacterials: Non-Cytotoxic Diarylureas Analogues of Triclocarban” (Antibiotics, 2021)
